Results taken from patent US10844049B2, “GLP-1R agonists and uses thereof” (QILU REGOR THERAPEUTICS INC., priority 2018, dated 2020).
pEC50: −log10 of the molar value.

Legend:
GLP1R [1] = biological target: T1, GLP1R (Homo sapiens, UniProt P43220); assay: GLP1R cAMP assay, CHO cells stably expressing human GLP-1R; format: cell-based; details: CHO cells stably expressing GLP-1R, read-out: CHO cAMP stable EC50
Experimental: GLP-1R-mediated agonist activity was determined with a cell-based functional assay utilizing an HTRF (Homogeneous Time-Resolved Fluorescence) cAMP detection kit (cAMP Dynamic 2 Assay Kit; CisBio cat #62AM4PEC) that measures cAMP levels in the cell. The method is a competitive immunoassay between native cAMP produced by the cells and exogenous cAMP labeled with the dye d2. The tracer binding is visualized by a mAb anti-cAMP labeled with Cryptate. The specific signal (i.e., energy transfer) is inversely proportional to the concentration of cAMP in either standard or experimental sample.
Varying concentrations of each compound to be tested (in DMSO) were diluted in DMSO to obtain 200× compound working solution first and then 50 nl compounds were added to a white 384-well assay plate (Greiner 784075) with ECHO. The final DMSO concentration was 0.5%. The compound concentration range may be adjusted at any time.
Cells were removed from cryopreservation, re-suspended in 5 mL of Dulbecco's Phosphate Buffered Saline (DPBS-Sigma Cat # D8537) and centrifuged at 900 g for 5 min at 22° C. The cell pellet was then re-suspended in 1 mL of assay buffer [DPBS with 500 μM IBMX (Sigma #15879) and 0.1% BSA (Sigma # A1933). IBMX and BSA were freshly added on the day of assay]. A 10 μL sample of the cell suspension was counted on an Invitrogen Countess II to determine cell viability and cell count per mL. The remaining cell suspension was then adjusted with assay buffer to deliver 1000 viable cells per well using a Matrix Combi Multidrop reagent dispenser. 10 μL cell suspensions were added to each well of the assay plate which already contains compound. The plate was sealed and incubated at 37° C. with 5% CO2 for 30 minutes.
Following the 30 minute incubation, 5 μL of labeled d2 cAMP and 5 μL of anti-cAMP antibody (both diluted 1:20 in cell lysis buffer; as described in the manufacturer's assay protocol) were added to each well of the assay plate. The plates w ere then incubated at room temperature and after 60 minutes, changes in the HTRF signal were read with an Envision multi-label plate reader using excitation of 330 nm and emissions of 615 and 665 nm. Raw data were converted to nM cAMP by interpolation from a cAMP standard curve (as described in the manufacturer's assay protocol) and the percent effect was determined relative to a saturating concentration of the full agonist GLP-17-37 (10 nM) included on each plate. EC50 determinations were made from agonist dose-response curves analyzed with a curve fitting program using a 4-parameter logistic dose response equation. […]

GLP1R [2] = biological target: T1, GLP1R; assay: β-Arrestin-mediated GLP1R internalization assay (PathHunter engineered U2OS cells); format: cell-based; design: host or cells: PathHunter engineered U2OS cells; details: averaged Bmax, percentage of control GLP-1 (7-37), highest concentration tested
Text: A similar assay can also be used to assess the extent of signal attenuation due to GLP-1R internalization (the β-Arrestin Internalization Assay). In this assay, activated GLP1R Internalization cells were engineered to co-express an untagged GLP1R, Enzyme Acceptor (EA) tagged β-Arrestin, and a ProLink™ (PK) tag localized to the endosomes. Activation of the GLP1R induces β-Arrestin recruitment, which leads to internalization of the Receptor/Arrestin-EA complex in PK-tagged endosomes. This forces complementation of the two β-galactosidase enzyme fragments (EA and PK) to form a functional enzyme that hydrolyzes substrate to generate a chemiluminescent signal. These cells have been modified to prevent long term propagation and expansion using a proprietary compound that has no apparent effect on assay performance.
Specifically, PathHunter engineered U2OS cells from the assay kit (Cat #93-0724E3CP0L) were plated at a density of 2000 cells/20 μL/well in a 384-well white/clear bottom plates (Greiner Cat #781098). Frozen cells were quickly thawed and 10 mL of cell plating medium (provided by the kit) was added to thawed cells. Cells were stored in a 37° C. incubator and kept for approximately 48 hours until ready for the assay.
Reference and test compounds were dissolved in 100% DMSO. 5× concentration of an agonist was prepared in serum free DMEM (Thermo Cat #11965). 5 μL of this solution was added to 20 μL cell medium in assay plate for a final top concentration of 10 μM. Plates were incubated at 37° C. for 180 min.
Following 180 min incubation, detection reagents were made up by combining 1 part Galacton Star Substrate with 5 parts Emerald II™ Solution, and 19 parts of PathHunter Cell Assay Buffer, respectively. 12.5 μL detection reagent was added to each well. The plates were then incubated at room temperature for 60 min. Plates were then read on Envision for 0.1 sec/well.
EC50 determinations were made from agonist dose-response curves analyzed with a curve fitting program using a 4-parameter logistic dose response equation.

T1 sequence (P43220 24-463): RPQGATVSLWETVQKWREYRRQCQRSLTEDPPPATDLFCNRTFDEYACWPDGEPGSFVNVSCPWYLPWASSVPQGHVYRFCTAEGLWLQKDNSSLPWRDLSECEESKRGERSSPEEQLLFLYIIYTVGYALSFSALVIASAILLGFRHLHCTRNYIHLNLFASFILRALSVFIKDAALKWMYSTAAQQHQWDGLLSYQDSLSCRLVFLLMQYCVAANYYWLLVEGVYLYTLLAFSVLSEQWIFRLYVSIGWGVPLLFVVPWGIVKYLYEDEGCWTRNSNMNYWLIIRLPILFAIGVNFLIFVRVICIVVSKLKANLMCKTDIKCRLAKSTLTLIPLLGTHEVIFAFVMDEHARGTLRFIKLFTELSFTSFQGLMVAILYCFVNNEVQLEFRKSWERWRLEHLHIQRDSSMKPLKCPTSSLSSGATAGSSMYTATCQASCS

SMILES	pEC50 (GLP1R [1])	Bmax (POC) (GLP1R [2])
O=C(O)c1ccc2nc(CN3CC=C(c4cncc(OCc5ccc(Cl)cc5F)n4)CC3)n(C[C@@H]3CCO3)c2c1 [Compound 34, (S)-2-((4-(6-(4-chloro-2-fluorobenzyloxy)pyrazin-2-yl)-5,6-dihydropyridin-1(2H)-yl)methyl)-1-(oxetan-2-ylmethyl)-1 h-benzo[d]imidazole-6-carboxylic acid]	≥ 6.82	8.88 ± 3.19 POC
O=C(O)c1ccc2nc(CN3CC=C(c4cccc(OCc5ccc(Cl)cc5F)n4)CC3)n(C[C@@H]3CCO3)c2c1 [Compound 221, (S)-2-((6-((4-chloro-2-fluorobenzyl)oxy)-3′,6′-dihydro-[2,4′-bipyridin]-1′(2′H)-yl)methyl)-1-(oxetan-2-ylmethyl)-1H-benzo[d]imidazole-6-carboxylic acid]	≥ 7.82	30.0 ± 6.40 POC
O=C(O)c1ccc2nc(CN3CCC(c4ccnc(OCc5ccc(Cl)cc5F)n4)CC3)n(C[C@@H]3CCO3)c2c1 [Compound 18, (S)-2-((4-(2-((4-chloro-2-fluorobenzyl)oxy)pyrimidin-4-yl)piperidin-1-yl)methyl)-1-(oxetan-2-ylmethyl)-1H-benzo[d]imidazole-6-carboxylic acid]	≥ 6.82	21.3 ± 3.47 POC
O=C(O)c1ccc2nc(CN3CC=C(c4ccc(F)c(OCc5ccc(Cl)cc5F)c4)CC3)n(C[C@@H]3CCO3)c2c1 [Compound 29, (S)-2-((4-(3-((4-chloro-2-fluorobenzyl)oxy)-4-fluorophenyl)-3,6-dihydropyridin-1(2H)-yl)methyl)-1-(oxetan-2-ylmethyl)-1 h-benzo[d]imidazole-6-carboxylic acid]	≥ 6.82	25.9 ± 1.24 POC
O=C(O)c1ccc2nc(CN3CC=C(c4ccc(F)c(OCc5ccc(Cl)cc5F)c4)CC3)n(C[C@@H]3CCO3)c2c1F [Compound 238, (S)-2-((4-(3-((4-chloro-2-fluorobenzyl)oxy)-4-fluorophenyl)-3,6-dihydropyridin-1(2H)-yl)methyl)-7-fluoro-1-(oxetan-2-ylmethyl)-1H-benzo[d]imidazole-6-carboxylic acid]	≥ 6.82	52.8 ± 1.14 POC
O=C(O)c1ccc2nc(CN3CCC(c4cccc(OCc5ccc(Cl)cc5F)c4)CC3)n(C[C@@H]3CCO3)c2c1 [Compound 239, (S)-2-((4-(3-((4-chloro-2-fluorobenzyl)oxy)phenyl)piperidin-1-yl)methyl)-1-(oxetan-2-ylmethyl)-1H-benzo[d]imidazole-6-carboxylic acid]	≥ 6.82	14.1 ± 1.57 POC
O=C(O)c1ccc2nc(CN3CC=C(c4cccc(OCc5ccc(Cl)cc5F)c4)CC3)n(C[C@@H]3CCO3)c2c1F [Compound 237, (S)-2-((4-(3-((4-chloro-2-fluorobenzyl)oxy)phenyl)-3,6-dihydropyridin-1(2H)-yl)methyl)-7-fluoro-1-(oxetan-2-ylmethyl)-1H-benzo[d]imidazole-6-carboxylic acid]	≥ 6.82	17.7 ± 1.20 POC
O=C(O)c1ccc2nc(CN3CC=C(c4ccc(F)c(OCc5ccc(Cl)cc5F)c4)CC3)n(C[C@@H]3CCO3)c2n1 [Compound 236, (S)-2-((4-(3-((4-chloro-2-fluorobenzyl)oxy)-4-fluorophenyl)-5,6-dihydropyridin-1(2H)-yl)methyl)-3-(oxetan-2-ylmethyl)-3H-imidazo[4,5-b]pyridine-5-carboxylic acid]	≥ 6.82	30.0 POC
O=C(O)c1ccc2nc(CN3CC=C(c4cccc(OCc5ccc(Cl)cc5F)c4)CC3)n(C[C@@H]3CCO3)c2n1 [Compound 224, (S)-2-((4-(3-((4-chloro-2-fluorobenzyl)oxy)phenyl)-3,6-dihydropyridin-1(2H)-yl)methyl)-3-(oxetan-2-ylmethyl)-3H-imidazo[4,5-b]pyridine-5-carboxylic acid]	≥ 6.82	22.5 ± 1.41 POC
N#Cc1ccc(COc2cncc(C3CCN(Cc4nc5ccc(C(=O)O)cc5n4C[C@@H]4CCO4)CC3)n2)c(F)c1 [Compound 22, (S)-2-((4-(6-(4-cyano-2-fluorobenzyloxy)pyrazin-2-yl)piperidin-1-yl)methyl)-1-(oxetan-2-ylmethyl)-1 h-benzo[d]imidazole-6-carboxylic acid]	≥ 6.00	7.40 ± 6.97 POC
O=C(O)c1ccc2nc(CN3CC=C(c4cccc(OCc5ccc(-n6ccnc6)cc5)n4)CC3)n(C[C@@H]3CCO3)c2n1 [Compound 245, (S)-2-((4-(6-(4-(1H-imidazol-1-yl)benzyloxy)pyridin-2-yl)-5,6-dihydropyridin-1(2H)-yl)methyl)-3-(oxetan-2-ylmethyl)-3H-imidazo[4,5-b]pyridine-5-carboxylic add]	≥ 7.82	27.7 POC
N#Cc1ccc(COc2nc(C3=CCN(Cc4nc5ccc(C(=O)O)cc5n4C[C@@H]4CCO4)CC3)ccc2F)c(F)c1 [Compound 222, (S)-2-((6-((4-cyano-2-fluorobenzyl)oxy)-5-fluoro-3′,6′-dihydro-[2,4′-bipyridin]-1′(2′H)-yl)methyl)-1-(oxetan-2-ylmethyl)-1H-benzo[d]imidazole-6-carboxylic acid]	≥ 7.82	31.4 ± 2.62 POC
O=C(O)c1ccc2nc(CN3CC=C(c4cccc(OCc5ccc(Cl)cc5F)c4)CC3)n(C[C@@H]3CCO3)c2c1 [Compound 28, (S)-2-((4-(3-((4-chloro-2-fluorobenzyl)oxy)phenyl)-3,6-dihydropyridin-1(2H)-yl)methyl)-1-(oxetan-2-ylmethyl)-1 h-benzo[d]imidazole-6-carboxylic add]	≥ 6.82	17.6 ± 6.62 POC
O=C(O)c1ccc2nc(CN3CC=C(c4cccc(OCc5ccc(-c6cccnc6)cc5)n4)CC3)n(C[C@@H]3CCO3)c2c1 [Compound 242, (S)-1-(oxetan-2-ylmethyl)-2-((6-((4-(pyridin-3-yl)benzyl)oxy)-3′,6′-dihydro-[2,4′-bipyridin]-1′(2′H)-yl)methyl)-1H-benzo[d]imidazole-6-carboxylic add]	–	15.4 POC
O=C(O)c1ccc2nc(CN3CC=C(c4ccnc(OCc5ccc(Cl)cc5F)n4)CC3)n(C[C@@H]3CCO3)c2c1 [Compound 35, (S)-2-((4-(2-((4-chloro-2-fluorobenzyl)oxy)pyrimidin-4-yl)-3,6-dihydropyridin-1(2H)-yl)methyl)-1-(oxetan-2-ylmethyl)-1H-benzo[d]imidazole-6-carboxylic add]	≥ 6.82	14.3 ± 9.21 POC
O=C(O)c1ccc2nc(CN3CCC(c4cncc(OCc5ccc(Cl)cc5F)n4)CC3)n(C[C@@H]3CCO3)c2c1 [Compound 21, (S)-2-((4-(6-(4-chloro-2-fluorobenzyloxy)pyrazin-2-yl)piperidin-1-yl)methyl)-1-(oxetan-2-ylmethyl)-1 h-benzo[d]imidazole-6-carboxylic acid]	≥ 6.00	6.64 ± 1.55 POC
